{"source": "patent US20250281497A1", "about": "“FUSED AMINO PYRIMIDINE COMPOUNDS FOR TREATMENT OF SEIZURE DISORDERS” (Ovid Therapeutics Inc., priority 2024, published 2025)", "key": {"[1]": {"experiment": "PK studies, brain and plasma levels by LC-MS/MS", "type": "in vivo, mice", "conditions": "for concentration at 30 min: 25 mg/kg IV bolus, within 30 minutes", "procedure": "PK studies. […] Plasma and brain samples were rapidly frozen on dry ice.\nDrug accumulation in the brain was examined following SC injection (FIG. 4C; 50 mg/kg)."}, "KCC2": {"molecular_target": "T1, KCC2 (Homo sapiens, UniProt Q9H2X9)", "T1 construct": "expressed in transfected cells; host or cells: HEK-293 (ATCC CRL-1573)", "T1 sequence (Q9H2X9 1-1116 isoform Q9H2X9-2)": "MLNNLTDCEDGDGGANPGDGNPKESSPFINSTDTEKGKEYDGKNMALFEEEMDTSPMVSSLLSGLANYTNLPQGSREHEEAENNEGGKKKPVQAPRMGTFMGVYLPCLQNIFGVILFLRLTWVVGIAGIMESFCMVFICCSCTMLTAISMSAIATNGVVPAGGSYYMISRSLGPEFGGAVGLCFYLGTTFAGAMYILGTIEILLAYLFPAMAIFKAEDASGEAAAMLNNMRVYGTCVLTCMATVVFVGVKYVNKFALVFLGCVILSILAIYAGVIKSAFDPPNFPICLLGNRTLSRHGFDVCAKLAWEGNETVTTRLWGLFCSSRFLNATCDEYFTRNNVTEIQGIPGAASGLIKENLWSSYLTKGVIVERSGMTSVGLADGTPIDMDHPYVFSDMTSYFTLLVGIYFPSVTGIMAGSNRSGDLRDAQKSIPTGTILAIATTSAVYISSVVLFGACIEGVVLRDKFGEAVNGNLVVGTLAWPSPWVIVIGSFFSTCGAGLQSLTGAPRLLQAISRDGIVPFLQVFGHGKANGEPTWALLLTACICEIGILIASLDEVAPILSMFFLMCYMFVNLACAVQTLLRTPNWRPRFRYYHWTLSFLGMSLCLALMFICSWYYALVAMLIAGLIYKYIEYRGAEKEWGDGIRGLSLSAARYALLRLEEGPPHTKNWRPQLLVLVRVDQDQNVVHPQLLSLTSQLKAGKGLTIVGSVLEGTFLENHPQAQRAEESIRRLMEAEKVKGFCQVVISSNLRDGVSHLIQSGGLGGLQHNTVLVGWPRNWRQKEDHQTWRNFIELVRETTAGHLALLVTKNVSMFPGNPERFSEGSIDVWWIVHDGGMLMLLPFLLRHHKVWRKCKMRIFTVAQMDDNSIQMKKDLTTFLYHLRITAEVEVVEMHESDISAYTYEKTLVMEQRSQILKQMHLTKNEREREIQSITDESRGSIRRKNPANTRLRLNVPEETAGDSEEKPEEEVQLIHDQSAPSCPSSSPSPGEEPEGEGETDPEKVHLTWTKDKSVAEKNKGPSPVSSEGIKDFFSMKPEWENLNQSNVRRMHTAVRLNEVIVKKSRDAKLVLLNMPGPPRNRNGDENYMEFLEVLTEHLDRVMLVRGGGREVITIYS", "experiment": "Surface biotinylation of KCC2 in HEK-293 cells", "type": "cell-based", "conditions": "15 min", "procedure": "Cell Culture and biotinylation. HEK-293 cells were purchased from ATCC (CRL-1573) and transfected with human KCC2 and GFP expression plasmids using Lipofectamine 2000. Cells were utilized for experimentation 48-72h following transfection. Cells were biotinylated at 4° C. using NHS-Biotin. Following lysis and purification on immobilized avidin beads, cell surface and total fractions were subject to immunoblotting as outlined previously (Conway et al., 2017, supra).\nThe reliability of the biotinylation procedure was assessed via immunoblotting with antibodies against the cytosolic protein actin. Actin was present in the total lysates but was absent from the surface fractions (FIG. 2C)."}, "hippocampal neurons": {"tested_on": "hippocampal neurons", "experiment": "Gramicidin perforated patch clamp, EGABA in hippocampal neurons", "type": "cell-based, Sprague Dawley", "conditions": "300 nM", "procedure": "Neuronal Cultures. Hippocampal neurons were prepared from Sprague Dawley E18 embryos and plated at 450,000 per dish and maintained at 37° C. in a humidified 5% CO2 incubator for 10-25 days before experimentation (Lee et al., Nat. Neurosci. 14, 736-743 (2011)).\nAt this developmental stage, GABAAR receptor activation leads to hyperpolarization, a phenomenon critically dependent upon KCC2 (Kontou et al., J Biol Chem, 100364 (2021)).\nNeuronal Patch clamp assays. Neuronal cell culture recordings were performed in bath saline at 34° C. For gramicidin perforated-patch experiments, pipettes contained (in mM): 140 KCl and 10 HEPES, pH 7.4 KOH. For whole-cell experiments, pipettes contained (in mM): 115 K-meth-SO^4, 30 KCl, 2 Mg-ATP, 4 Na-ATP, 0.4 Na-GTP, and 10 HEPES, pH 7.4 KOH. Bath saline contained the following (in mM): 140 NaCl, 2.5 KCl, 2.5 CaCl2, 2.5 MgCl2, 10 HEPES, and 11 glucose, pH 7.4 NaOH (Kontou et at, 2021, supra). All compound solutions were applied to cells using a three-barreled 700 μm pipe positioned just above the cell (Warner Instruments). […] All voltages from whole-cell experiments were corrected offline using a calculated liquid junction potential value (13.6 mV) in Clampex (Molecular Devices). For gramicidin perforated-patch experiments, intracellular Cl^− values were back-calculated using measured EGABA values and the Nernst equation: […]"}}, "note": "Where two headings read alike, the source gives them in different places."}
{"smiles": "C[C@@H]1CN(c2nc3c(c(Nc4ccc(C5CCCCC5)cc4)n2)COC3)CCO1", "note": "[Compound A, (R)—N-(4-cyclohexylphenyl)-2-(2-methylmorpholino)-5,7-dihydrofuro[3,4-d]pyrimidin-4-amine]", "values": [{"measurement": "time of maximal concentration in brain", "setting": "[1]; 50 mg/kg SC", "result": 4, "unit": "h"}, {"measurement": "brain level 8h after SC injection", "setting": "[1]; 50 mg/kg SC, 8h", "result": "a level that was maintained 8h later"}, {"measurement": "maximal concentration in brain", "setting": "[1]; 50 mg/kg SC, at 4 hr", "result": "> 600", "unit": "nM"}, {"measurement": "concentration at 2 hr", "setting": "[1]; mouse, brain, intraperitoneal, 50 mg/kg IP, 2 hr", "result": "2.67 ± 0.21", "unit": "µM"}, {"measurement": "concentration at 4 hr", "setting": "[1]; mouse, brain, intraperitoneal, 50 mg/kg IP, 4 hr", "result": "4.1 ± 0.13", "unit": "µM"}, {"measurement": "concentration at 30 min", "setting": "[1]; mouse, brain, read-out: concentration in brain", "result": "7.6 ± 4.4", "unit": "µM"}, {"measurement": "concentration at 30 min", "setting": "[1]; mouse, plasma, read-out: concentration in plasma", "result": "41.5 ± 11.5", "unit": "µM"}, {"measurement": "KCC2 on the plasma membrane (surface/total)", "setting": "KCC2; 0.3 μM", "result": "94.5±8.4 % of control"}, {"measurement": "KCC2 on the plasma membrane (surface/total)", "setting": "KCC2; 3 μM", "result": "104.7±8.4 % of control"}, {"measurement": "reduction in Cl−", "setting": "hippocampal neurons; 15 min, from EGABA by Nernst equation", "result": "2.2 ± 0.6", "unit": "mM"}, {"measurement": "EGABA at 15 min", "setting": "hippocampal neurons; from −75±3.1 at 0 min, bumetanide and TTX present", "result": "−85.1±4.2", "unit": "mV"}]}
